Reference: patent US20090118332A1, “Therapeutic Agents - 551” (AstraZeneca AB, priority 2006, published 2009)

Target: T1, human Fatty Acid Synthase (Homo sapiens, UniProt P49327)
T1 construct: made in house
Test: Human FAS enzyme assay (decrease in NADPH fluorescence)
Assay type: biochemical
Details: % inhibition at a concentration of 100 μmolar
How it was run: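 In-house human FAS was preincubated with compound and NADPH for 15 min at room temperature in 0.1 M Tris pH 7.5 with EDTA, glutathione and BSA. Malonyl CoA and acetyl CoA (500 μM and 150 μM in the added mix) were then added for 60 min. IC50 came from time-zero-subtracted NADPH fluorescence (340/460 nm).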

T1 sequence (P49327 whole entry): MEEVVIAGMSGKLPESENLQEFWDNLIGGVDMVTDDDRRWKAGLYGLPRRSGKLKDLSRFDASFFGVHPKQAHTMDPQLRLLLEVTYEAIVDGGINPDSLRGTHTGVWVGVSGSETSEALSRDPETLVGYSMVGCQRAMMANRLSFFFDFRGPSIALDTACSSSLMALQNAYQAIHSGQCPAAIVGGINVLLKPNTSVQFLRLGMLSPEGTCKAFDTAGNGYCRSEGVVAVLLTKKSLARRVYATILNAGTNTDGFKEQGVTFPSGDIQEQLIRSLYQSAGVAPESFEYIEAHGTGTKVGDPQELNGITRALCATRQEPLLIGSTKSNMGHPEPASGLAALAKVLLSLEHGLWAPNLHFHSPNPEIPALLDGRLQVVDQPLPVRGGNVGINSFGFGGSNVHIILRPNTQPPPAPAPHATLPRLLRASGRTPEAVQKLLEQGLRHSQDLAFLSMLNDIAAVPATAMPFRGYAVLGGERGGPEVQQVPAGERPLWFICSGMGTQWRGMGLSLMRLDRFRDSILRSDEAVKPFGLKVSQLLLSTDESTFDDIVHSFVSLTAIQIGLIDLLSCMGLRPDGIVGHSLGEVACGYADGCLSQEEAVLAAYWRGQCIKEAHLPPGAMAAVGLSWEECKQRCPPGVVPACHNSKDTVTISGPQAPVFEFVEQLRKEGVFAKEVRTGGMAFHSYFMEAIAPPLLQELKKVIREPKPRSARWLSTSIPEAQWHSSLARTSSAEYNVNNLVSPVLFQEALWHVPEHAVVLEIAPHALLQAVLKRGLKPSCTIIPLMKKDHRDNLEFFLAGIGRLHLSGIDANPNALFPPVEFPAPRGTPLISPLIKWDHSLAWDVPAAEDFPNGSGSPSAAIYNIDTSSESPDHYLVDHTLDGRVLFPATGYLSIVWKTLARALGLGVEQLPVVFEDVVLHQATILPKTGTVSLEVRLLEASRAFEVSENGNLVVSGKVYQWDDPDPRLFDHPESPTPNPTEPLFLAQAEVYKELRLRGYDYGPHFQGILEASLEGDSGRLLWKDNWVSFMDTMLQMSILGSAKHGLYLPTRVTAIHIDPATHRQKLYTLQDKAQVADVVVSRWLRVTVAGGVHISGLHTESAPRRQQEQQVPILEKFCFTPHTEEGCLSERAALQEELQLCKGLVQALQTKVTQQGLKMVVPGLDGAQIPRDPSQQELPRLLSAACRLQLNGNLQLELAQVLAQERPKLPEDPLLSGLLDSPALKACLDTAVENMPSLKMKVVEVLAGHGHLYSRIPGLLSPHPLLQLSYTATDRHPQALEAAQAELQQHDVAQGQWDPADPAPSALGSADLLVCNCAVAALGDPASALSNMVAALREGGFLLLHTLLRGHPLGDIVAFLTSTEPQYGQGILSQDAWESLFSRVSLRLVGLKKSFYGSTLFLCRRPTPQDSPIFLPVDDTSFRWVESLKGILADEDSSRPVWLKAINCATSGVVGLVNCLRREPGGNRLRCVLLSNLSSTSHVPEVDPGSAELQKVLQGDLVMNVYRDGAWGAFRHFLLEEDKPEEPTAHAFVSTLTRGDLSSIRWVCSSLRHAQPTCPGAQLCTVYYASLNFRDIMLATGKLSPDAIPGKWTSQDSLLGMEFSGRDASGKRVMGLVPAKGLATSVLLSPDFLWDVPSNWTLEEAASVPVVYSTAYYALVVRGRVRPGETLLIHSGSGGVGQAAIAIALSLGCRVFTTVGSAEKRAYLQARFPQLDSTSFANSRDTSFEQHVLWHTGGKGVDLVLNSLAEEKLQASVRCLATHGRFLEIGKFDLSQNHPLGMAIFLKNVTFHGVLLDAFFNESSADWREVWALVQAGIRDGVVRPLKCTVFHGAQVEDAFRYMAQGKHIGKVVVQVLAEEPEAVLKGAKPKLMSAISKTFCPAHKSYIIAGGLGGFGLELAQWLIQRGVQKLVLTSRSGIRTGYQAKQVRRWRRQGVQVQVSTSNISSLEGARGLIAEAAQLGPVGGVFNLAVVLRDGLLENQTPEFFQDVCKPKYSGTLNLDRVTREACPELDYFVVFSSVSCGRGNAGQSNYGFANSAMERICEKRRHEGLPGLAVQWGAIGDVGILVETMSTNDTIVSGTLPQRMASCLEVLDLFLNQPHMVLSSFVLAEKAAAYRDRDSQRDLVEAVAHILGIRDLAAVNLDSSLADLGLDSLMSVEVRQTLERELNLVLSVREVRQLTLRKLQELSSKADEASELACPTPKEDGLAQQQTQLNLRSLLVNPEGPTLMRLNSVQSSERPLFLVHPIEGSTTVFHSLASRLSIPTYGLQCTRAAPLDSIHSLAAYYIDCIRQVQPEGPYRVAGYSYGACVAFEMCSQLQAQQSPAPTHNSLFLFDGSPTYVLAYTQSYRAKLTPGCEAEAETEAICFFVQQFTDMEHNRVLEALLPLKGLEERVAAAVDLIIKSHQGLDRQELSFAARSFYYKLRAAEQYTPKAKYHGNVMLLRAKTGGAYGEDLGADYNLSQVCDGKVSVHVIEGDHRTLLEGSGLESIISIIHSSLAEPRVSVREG

inhibition at 100 µM | SMILES
97.2% | CCC(=O)N1CCCC(NC(=O)Nc2cc(C(=O)N3CCC(c4ccc(C#N)cc4)CC3)ccc2C)C1 (centres unmarked) [Example 295, 3-[5-[4-(4-cyanophenyl)piperidine-1-carbonyl]-2-methyl-phenyl]-1-(1-propanoyl-3-piperidyl)urea]
103% | Cc1ccc(C(=O)N2CCC(c3ccc(C#N)cc3)CC2)cc1NC(=O)NC1CCCN(S(C)(=O)=O)C1 (centres unmarked) [Example 296, 1-[5-[4-(4-cyanophenyl)piperidine-1-carbonyl]-2-methyl-phenyl]-3-(1-methylsulfonyl-3-piperidyl)urea]
97.9% | CCS(=O)(=O)N1CCCC(NC(=O)Nc2cc(C(=O)N3CCC(c4ccc(C#N)cc4)CC3)ccc2C)C1 (centres unmarked) [Example 297, 3-[5-[4-(4-cyanophenyl)piperidine-1-carbonyl]-2-methyl-phenyl]-1-(1-ethylsulfonyl-3-piperidyl)urea]
93.9% | Cc1ccc(C(=O)N2CCC(c3ccc(C#N)cc3)CC2)cc1NC(=O)NC1CN(S(C)(=O)=O)C1 [Example 302, 1-[5-[4-(4-cyanophenyl)piperidine-1-carbonyl]-2-methyl-phenyl]-3-(1-methylsulfonylazetidin-3-yl)urea]
93.5% | Cc1ccc(C(=O)N2CCC(c3ccc(C#N)cc3)CC2)cc1NC(=O)NC1CN(S(=O)(=O)N(C)C)C1 [Example 303, 1-[5-[4-(4-cyanophenyl)piperidine-1-carbonyl]-2-methyl-phenyl]-3-[1-(dimethylsulfamoyl)azetidin-3-yl]urea]
105% | CCS(=O)(=O)N1CC(NC(=O)Nc2cc(C(=O)N3CCC(c4ccc(C#N)cc4)CC3)ccc2C)C1 [Example 311, 3-[5-[4-(4-cyanophenyl)piperidine-1-carbonyl]-2-methyl-phenyl]-1-(1-ethylsulfonylazetidin-3-yl)urea]

The next lines start with the compound.

SMILES | inhibition at 100 µM
Cc1cc(C)c(C(=O)N2CCC(c3ccc(C#N)cc3)CC2)cc1NC(=O)NCCCS(C)(=O)=O [Example 294, 1-[5-[4-(4-cyanophenyl)piperidine-1-carbonyl]-2,4-dimethyl-phenyl]-3-(3-methylsulfonylpropyl)urea] | 92.2%
CCc1ccc(C(=O)N2CCC(c3ccc(C#N)cc3)CC2)cc1NC(=O)NC1COC1 [Example 298, 1-[5-[4-(4-cyanophenyl)piperidine-1-carbonyl]-2-ethyl-phenyl]-3-(oxetan-3-yl)urea] | 95.8%
Cc1ccc(C(=O)N2CCC(c3ccc(C#N)cc3)CC2)cc1NC(=O)NC1COC1 [Example 299, 1-[5-[4-(4-cyanophenyl)piperidine-1-carbonyl]-2-methyl-phenyl]-3-(oxetan-3-yl)urea] | 95.1%
Cc1ccc(C(=O)N2CCC(c3ccc(C#N)cc3)CC2)cc1NC(=O)NC1CNC1 [Example 300, 3-(azetidin-3-yl)-1-[5-[4-(4-cyanophenyl)piperidine-1-carbonyl]-2-methyl-phenyl]urea] | 84.3%
Cc1ccc(C(=O)N2CCC(c3ccc(C#N)cc3)CC2)cc1NC(=O)NC1CN(C(=O)C(C)C)C1 [Example 301, 1-[5-[4-(4-cyanophenyl)piperidine-1-carbonyl]-2-methyl-phenyl]-3-[1-(2-methylpropanoyl)azetidin-3-yl]urea] | 96.6%
Cc1ccc(C(=O)N2CCC(c3ccc(C#N)cc3)CC2)cc1NC(=O)N1CC(N)C1 [Example 306, 3-amino-N-[5-[4-(4-cyanophenyl)piperidine-1-carbonyl]-2-methyl-phenyl]azetidine-1-carboxamide] | 84.7%
CC(=O)N1CC(NC(=O)Nc2cc(C(=O)N3CCC(c4ccc(C#N)cc4)CC3)ccc2C)C1 [Example 310, 3-(1-acetylazetidin-3-yl)-1-[5-[4-(4-cyanophenyl)piperidine-1-carbonyl]-2-methyl-phenyl]urea] | 94.5%
CC(=O)NC1CN(C(=O)Nc2cc(C(=O)N3CCC(c4ccc(C#N)cc4)CC3)ccc2C)C1 [Example 312, 3-acetamido-N-[5-[4-(4-cyanophenyl)piperidine-1-carbonyl]-2-methyl-phenyl]azetidine-1-carboxamide] | 88.8%
